Laboratory results taken from patent publication EP0738149B1 (priority 1994, dated 1995).
Where two headings read alike, the source gives them in different places.

Key:
Male mongolian gerbils = test: Global brain ischemia in gerbils (CA1 pyramidal neurons); format: in vivo; conditions: 3 injections, fraction of hippocampi protected from ischemia, 14 days post-ischemia
Summary of the method: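 Global ischemia induced by clamping each artery for 5 min. Compound given ip 2 min after clamp removal, then daily for the next 2 days (3 doses). CA1 pyramidal neurons counted 14 days post-ischemia in H&E-stained anterior hippocampal sections; percent protection is the fraction of hippocampi protected at the stated dose.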

in vivo = conditions: mouse, in vivo, ip
Description: (§1) Neurotoxicity of the claimed agents was also assessed in mice (i.p. administration) by the rotorod ataxia test and/or in rats (p.o. administration) by positional sense test and gait stance test. […] The term quantitating the neurotoxicity is the medial neurological toxic dose (TD50), was determined in the above tests.

mice = test: in vivo
Description: as §1

rats [1] = test: Neurotoxicity in rats (positional sense test and gait stance test), p.o.; conditions: rats, p.o.; Table 16
Description: as §1

[2] = as above; conditions: rat, in vivo, po
Description: as §1

male ICR albino mice = test: Hypobaric hypoxia survival time in mice; format: in vivo
Description: Dessicator B was disconnected and allowed to equilibrate with room air whilst dessicator A was evacuated to a pressure of 100mmHg. […] The survival time from the moment of induction of hypoxia to the time of cessation of respiration was recorded for each mouse for a maximum of 15 minutes after which time room air was reintroduced to dessicator B. Survivors were monitored for signs of lethargy or vitality.
Effect of drug treatment was assessed as the percent of the survival time of the drug treated group with respect to the saline injected or vehicle injected control group. Control groups were run twice, before and after each experimental group and consisted of 12-16 mice in groups of 4 mice. Each experimental group always consisted of 4 mice to ensure a constant residual volume of oxygen in all tests. The effect of each dose of test drug was determined in duplicate i.e. two groups of 4 mice.
All drugs were administered intra-peritoneally at the dose indicated one hour prior to exposure to hypoxia.

rats [3] = test: Maximal electroshock (MES) model in rats, p.o.;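 also: rat MES model gauging antiepileptic efficacy versus generalized and partial seizures after oral dosing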; format: in vivo; conditions: Rattus norvegicus, po, read-out: RATS MES 50
hypoxic rat [4] = test: Passive avoidance test in hypoxic rat, Experiment 3A; format: in vivo; conditions: Exp 3A, day 13 of drug treatment 0.5mg/kg/Day, Mean ± SEM; for latency of response, 48h after electroshock: maximum 300 seconds
Description: Experiment 3A: Wistar male rats, 15-19 month-old, were exposed to a single hypoxic episode as described above. […] The passive avoidance test was performed on day 13 after initiation the drug treatment. The apparatus consisted of a lit chamber that can be separated from a dark chamber by a sliding door. At training, a rat is placed in the lit chamber for 30 seconds, then the door is opened. The rat moves to the dark chamber after a short delay - the latency, that is recorded. Upon entry into the dark chamber, the door is shut closed and a 0.3-mA footshock is delivered for 3 seconds by a Grass S-88 stimulator. Retention of the experience is determined after 48 hours by repeating the test and recording the latency to an arbitrary maximum of 300 seconds. Longer latencies are ascribed to retention of memory and improved cognition.

hypoxic rat [5] = test: Amphetamine-induced stereotype behavior in hypoxic rat, Experiments 2A and 2B; format: in vivo; conditions: for total number of lateral head movements per minute: Exp 2A, 0.5mg/kg daily 29 days, D-amphetamine sulfate 0.5mg/kg s.c., 45-60 min after, Mean ± SEM; for lateral head movements: Exp 2B, 0.3mg/kg daily i.p. 14 days, 12 month-old rats
Description: Experiment 2A. Wistar male rats, 15-19 month-old, were exposed to a single hypoxic episode as described above. […] Rats pretreated for 29 days with daily doses of the test drugs (0.5mg/kg), received a sub-cutaneous (s.c.) injection of D-amphetamine sulfate at a dose of 0.5mg/kg. D-amphetamine is known to cause an enhancement of the effects of CNS dopamine by a mechanism involving dopamine release, and blockage of its uptake and its metabolism by MAO. The behavioral manifestation of amphetamine action is a stereotypic pattern of lateral head movements.
Counts of lateral head movements were taken over two successive intervals of 1 min each, 45-60 min after the injection of amphetamine and then averaged.
Experiment 2B. […] The drugs were given by i.p. injection. • 3) Duration of the treatment: 14 days.

[6] = 50 mg/kg ip one hour prior to hypoxia
[7] = 100 mg/kg ip one hour prior to hypoxia
[8] = dose cell empty (line below 50 mg/kg ip)

## CC(=O)N[C@@H]1CCc2ccccc21 [Example 18, (R)-N-Acetyl-1-aminoindan]
Male mongolian gerbils; 0.1 mg/kg ip
  PERCENT PROTECTION: 25.0%
Male mongolian gerbils; 1.0 mg/kg ip
  PERCENT PROTECTION: 25.0%
Male mongolian gerbils; 10.0 mg/kg ip
  PERCENT PROTECTION: 66.7%
In vivo; MICE TD50
  TD50: 75 mg/kg
mice; mouse, in vivo, ip
  MICE TD50: 75 mg/kg
Rats [1]
  RATS TD50: >500 mg/kg
[2]
  TD50: > 500 mg/kg
Male ICR albino mice; [6]
  PROTECTION % OF RESPECTIVE CONTROL: 271±193 % OF RESPECTIVE CONTROL
Male ICR albino mice; [7]
  PROTECTION % OF RESPECTIVE CONTROL: 397±244 % OF RESPECTIVE CONTROL
Male ICR albino mice; [8]
  PROTECTION % OF RESPECTIVE CONTROL: 383±233 % OF RESPECTIVE CONTROL
Rats [3]; rats, p.o., Table 15
  ED50: 14 mg/kg

## N[C@@H]1CCc2ccccc21 [R-AI, (R)-1-aminoindan]
Male mongolian gerbils; 0.1 mg/kg ip
  PERCENT PROTECTION: 25.0%
Male mongolian gerbils; 1.0 mg/kg ip
  PERCENT PROTECTION: 25.0%
Male mongolian gerbils; 10.0 mg/kg ip
  PERCENT PROTECTION: 25.0%
In vivo
  TD50: 71 mg/kg
mice; mice, i.p., Table 16
  MICE TD50: 71 mg/kg
Hypoxic rat [4]
  latency of response, before electroshock: 53 ± 6 s
  latency of response, 48h after electroshock: 245 ± 33 s
Rats [1]
  RATS TD50: 492 mg/kg
[2]
  TD50: 492 mg/kg
Male ICR albino mice; [6]
  PROTECTION % OF RESPECTIVE CONTROL: 358±224 % OF RESPECTIVE CONTROL
Male ICR albino mice; [7]
  PROTECTION % OF RESPECTIVE CONTROL: 395±199 % OF RESPECTIVE CONTROL
Male ICR albino mice; [8]
  PROTECTION % OF RESPECTIVE CONTROL: 411±174 % OF RESPECTIVE CONTROL
Rats [3]
  ED50: 184 mg/kg
Hypoxic rat [5]
  total number of lateral head movements per minute: 108 ± 3 per minute
  lateral head movements: 92 ± 3

## C#CCN(C)[C@H](C)Cc1ccccc1 [deprenyl]
Hypoxic rat [4]
  latency of response, before electroshock: 53 ± 7 s
  latency of response, 48h after electroshock: 153 ± 37 s
Hypoxic rat [5]
  total number of lateral head movements per minute: 76 ± 3 per minute
  lateral head movements: 77 ± 3
